Measured values from US8088806B2 (Achillion Pharmaceuticals, Inc., priority 2005, dated 2012).

The compounds below were run on HCV replicon (assay: Replicon based assay of HCV replication inhibition (NPT ELISA)). Conditions: Hepatitis C virus, Huh-7, 72 h, Table I; Huh-7 HCV replicon-containing cells, three days; read-out: Activity.
Format: cell-based, Hepatitis C virus
Outline: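 Huh-7 cells carrying a bicistronic HCV replicon (neo, EMCV-IRES-driven NS3–NS5B) treated overnight after seeding with usually 6 concentrations, 10 to 0.03 micromolar, for three days at 37° C without G418. Replication read as NPT level by captured ELISA; matched-DMSO wells and interferon alpha as controls.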

SMILES | EC50 [nM]
CCCCCOc1ccc(Nc2nc(-c3ccc(OCC(=O)OCC)cc3)c(C)s2)cc1C(F)(F)F [compound 139, ethyl 2-(4-(2-(3-(trifluoromethyl)-4-(pentyloxy)phenylamino)-5-methylthiazol-4-yl)phenoxy)acetate] | < 1000
CCCCCOc1ccc(Nc2nc(-c3ccc(C(=O)N(C)C)cn3)cs2)cc1C(F)(F)F [compound 215, 6-(2-(3-(trifluoromethyl)-4-(pentyloxy)phenylamino)thiazol-4-yl)-N,N-dimethylpyridine-3-carboxamide] | < 1000
CCCCCOc1ccc(Nc2nc(-c3ccc(OCC(=O)O)cc3)c(C)s2)cc1C(F)(F)F [compound 137, 2-(4-(2-(3-(trifluoromethyl)-4-(pentyloxy)phenylamino)-5-methylthiazol-4-yl)phenoxy)acetic acid] | < 1000
Cc1nccc(-c2cccc(Nc3nc(-c4cccnc4)cs3)c2)n1 [compound 105, N-(3-(2-methylpyrimidin-4-yl)phenyl)-4-(pyridin-3-yl)thiazol-2-amine] | > 10000
Clc1ccc(-c2csc(Nc3ccc(Cc4ccccc4)cc3)n2)cc1 [compound 42, N-(4-benzylphenyl)-4-(4-chlorophenyl)thiazol-2-amine] | > 10000
Clc1ccc(-c2csc(Nc3cccc(Cc4ccccc4)c3)n2)cc1 [compound 38, N-(3-benzylphenyl)-4-(4-chlorophenyl)thiazol-2-amine] | < 1000
Fc1cc(Nc2nc(-c3cccnc3)cs2)ccc1OCC1CCCCC1 [compound 71, N-(4-(cyclohexylmethoxy)-3-fluorophenyl)-4-(pyridin-3-yl)thiazol-2-amine] | < 1000
Cc1sc(Nc2cccc(OCc3ccccc3)c2)nc1-c1ccc(CC(=O)O)cc1 [compound 192, 2-(4-(2-(3-(benzyloxy)phenylamino)-5-methylthiazol-4-yl)phenyl)acetic acid] | < 1000
CCCCCOc1ccc(Nc2nc(C(=O)N(C)c3ccc(Cl)c(Cl)c3)cs2)cc1C(F)(F)F [compound 129, 2-(3-(trifluoromethyl)-4-(pentyloxy)phenylamino)-N-(3,4-dichlorophenyl)-N-methylthiazole-4-carboxamide] | > 10000

Same assay, conditions: Hepatitis C virus, Huh-7, 72 h, Table III; Huh-7 HCV replicon-containing cells, three days; read-out: Activity

SMILES | EC50 [nM]
CCCCCCCCN(C)c1ccc(Nc2nc(-c3ccc4c(c3)NC(=O)CO4)cs2)cc1C(F)(F)F [compound 572, 6-(2-(4-(N-methyl-N-octylamino)-3-(trifluoromethyl)phenylamino)thiazol-4-yl)-2H-benzo[b][1,4]oxazin-3(4H)-one] | 1000 to 10000
CCCCCCCc1ccc(Nc2nc(Cc3cccc(F)c3)cs2)cc1 [compound 519, 4-(3-fluorobenzyl)-N-(4-heptylphenyl)thiazol-2-amine] | 1000 to 10000
FC(F)(F)c1cc(Nc2nc(-c3cccnc3)cs2)ccc1OCCCc1ccccc1 [compound 682, N-(4-(3-phenylpropoxy)-3-(trifluoromethyl)phenyl)-4-(pyridin-3-yl)thiazol-2-amine] | < 1000
CCCCCCCc1ccc(Nc2nc(-c3cc4ccccc4o3)cs2)cc1 [compound 565, 4-(benzofuran-2-yl)-N-(4-heptylphenyl)thiazol-2-amine] | > 10000
CCCCCCCCOc1ccc(Nc2nc(-c3ccc4[nH]c(=O)oc4c3)cs2)cc1C(F)(F)F [compound 585, 6-(2-(3-(trifluoromethyl)-4-(octyloxy)phenylamino)thiazol-4-yl)benzo[d]oxazol-2(3H)-one] | < 1000
CCCCCCCCOc1ccc(Nc2nc(-c3ccc4oc(CO)cc4c3)cs2)cc1C(F)(F)F [compound 704, (5-(2-(3-(trifluoromethyl)-4-(octyloxy)phenylamino)thiazol-4-yl)benzofuran-2-yl)methanol] | < 1000
CCCCCOc1ccc(Nc2nc3c(s2)CCc2ccncc2-3)cc1C(F)(F)F [compound 592, N-(3-(trifluoromethyl)-4-(pentyloxy)phenyl)-4,5-dihydrothiazolo[5,4-h]isoquinolin-2-amine] | < 1000
N#Cc1ccc(-c2csc(Nc3ccc(OCCCC4CCCC4)c(C(F)(F)F)c3)n2)cn1 [compound 614] | < 1000
CCCCCCCCOc1ccc(Nc2nc(-c3ccc4ncccc4n3)cs2)cc1C(F)(F)F [compound 701, 4-(6-deuterated-1,5-naphthyndin-2-yl)-N-(4-(octyloxy)-3-(trifluoromethyl)phenyl)thiazol-2-amine] | < 1000

Same assay, conditions: Hepatitis C virus, replicon based assay of HCV replication inhibition; Table II; read-out: Activity

SMILES | EC50 [nM]
COc1ccc(-c2csc(Nc3ccc(OC4CCCC4)c(C(F)(F)F)c3)n2)cc1 [compound 248, N-(4-(cyclopentyloxy)-3-(trifluoromethyl)phenyl)-4-(4-methoxyphenyl)thiazol-2-amine] | < 1000
CCCCCCCCOc1ccc(Nc2nc(-c3sc(-c4cnccn4)nc3C)cs2)cc1 [compound 390, 4-(4-methyl-2-(pyrazin-2-yl)thiazol-5-yl)-N-(4-(octyloxy)phenyl)thiazol-2-amine] | < 1000
CCCCCCCCOc1ccc(Nc2nc(-c3ccc(C)nc3)cs2)cn1 [compound 473, N-(4-(6-methylpyridin-3-yl)thiazol-2-yl)-6-(octyloxy)pyridin-3-amine] | < 1000
CCOC(=O)c1ccc(Nc2nc(-c3ccc(OCC(=O)O)cc3)c(C)s2)cc1 [compound 337, 2-(4-(2-(4-(ethoxycarbonyl)phenylamino)-5-methylthiazol-4-yl)phenoxy)acetic acid] | > 10000
CCCCCCCOc1ccc(Nc2nc(-c3ccc(OCC(=O)O)cc3)c(C)s2)cc1 [compound 425, 2-(4-(2-(4-(heptyloxy)phenylamino)-5-methylthiazol-4-yl)phenoxy)acetic acid] | < 1000
CCCCCOc1ccc(Nc2nc(-c3ccc(Cl)nc3)cs2)cc1C(F)(F)F [compound 460, 4-(6-chloropyridin-3-yl)-N-(3-(trifluoromethyl)-4-(pentyloxy)phenyl)thiazol-2-amine] | < 1000
CCCCCOc1ccc(Nc2nc(CN3CCCC(C(=O)N(CC)CC)C3)cs2)cc1F (centres unmarked) [compound 284, N,N-diethyl-1-((2-(3-fluoro-4-(pentyloxy)phenylamino)thia-zol-4-yl)methyl)piperidine-3-carboxamide] | 1000 to 10000
CCCCCCCCOc1ccc(Nc2nc(-c3ccc(Cl)c(Cl)c3)cs2)cc1 [compound 329, 4-(3,4-ddichlorophenyl)-N-(4-(octyloxy)phenyl)thiazol-2-amine] | 1000 to 10000
CCCCCCCCOc1ccc(Nc2nc(-c3ccc(F)cc3)cs2)cn1 [compound 475, N-(4-(4-fluorophenyl)thiazol-2-yl)-6-(octyloxy)pyridin-3-amine] | < 1000
CCCCCCCOc1ccc(Nc2nc(-c3ccncc3)cs2)cc1 [compound 365, N-(4-(heptyloxy)phenyl)-4-(pyridin-4-yl)thiazol-2-amine] | < 1000
CCCCCCCCN(C)c1ccc(Nc2nc(Cc3cccnc3)cs2)cc1 [compound 503, N^1-methyl-N^1-octyl-N^4-(4-((pyridin-3-yl)methyl)thiazol-2-yl)benzene-1,4-diamine] | > 10000
CCCCCCCCOc1ccc(Nc2nc(CN3CCC(C(N)=O)CC3)cs2)cc1 [compound 315, 1-((2-(4-(octyloxy)phenylamino)thia-zol-4-yl)methyl)piperidine-4-carboxammide] | 1000 to 10000
CCCCCCCCOc1ccc(Nc2nc(CN3CCC(C)CC3)cs2)cc1 [compound 324, 4-((4-methylpiperidin-1-yl)methyl)-N-(4-(octyloxy)phenyl)thiazol-2-amine] | 1000 to 10000
CC/C=C\CCCCOc1ccc(Nc2nc(-c3ccc(C)nc3)cs2)cc1C(F)(F)F [compound 481, N-(4-((Z)-oct-5-enyloxy)-3-(trifluoromethyl)phenyl)-4-(6-methylpyridin-3-yl)thiazol-2-amine] | < 1000
CCCCCOc1ccc(Nc2nc(CN3CCN(C(=O)OC(C)(C)C)CC3)cs2)cc1C(F)(F)F [compound 265, tert-butyl 4-((2-(4-(pentyloxy)-3-(trifluoromethyl)phenyl-amino)thiazol-4-yl)methyl)piperazine-1-carboxylate] | < 1000

Same assay, conditions: Hepatitis C virus, replicon based assay of HCV replication inhibition; Table IV; read-out: Activity

SMILES | EC50 [nM]
COc1ncc(-c2csc(Nc3ccc(OCCC(C)CCCC(C)C)c(C(F)(F)F)c3)n2)cn1 (centres unmarked) [compound 776, N-(4-(3,7-dimethyloctyloxy)-3-(trifluoromethyl)phenyl)-4-(2-methoxypyrimidin-5-yl)thiazol-2-amine] | < 1000
Cc1c(Nc2nc(-c3cccnc3)cs2)cccc1C(F)(F)F [compound 899, N-(3-(trifluoromethyl)-2-methylphenyl)-4-(pyridin-3-yl)thiazol-2-amine] | 1000 to 10000
Fc1c(Nc2nc(-c3cccnc3)cs2)cccc1C(F)(F)F [compound 890, N-(2-fluoro-3-(trifluoromethyl)phenyl)-4-(pyridin-3-yl)thiazol-2-amine] | 1000 to 10000
Fc1cc(Nc2nc(-c3cccnc3)cs2)ccc1OCCCCc1cccs1 [compound 852, N-(4-(4-(thiophen-2-yl)butoxy)-3-fluorophenyl)-4-(pyridin-3-yl)thiazol-2-amine] | < 1000
CCC(C)(C)c1ccc(Oc2ccccc2)c(Nc2nc(-c3cccnc3)cs2)c1 [compound 902, N-(5-tert-pentyl-2-phenoxyphenyl)-4-(pyridin-3-yl)thiazol-2-amine] | < 1000
O=C1CSc2cc(-c3csc(Nc4ccc(OCC5CCCCC5)c(F)c4)n3)ccc2N1 [compound 727, 7-(2-(4-(cyclohexylmethoxy)-3-fluorophenylamino)thiazol-4-yl)-2H-benzo[b][1,4]thiazin-3(4H)-one] | 1000 to 10000
CCCCCCCCOc1ccc(Nc2nc(-c3cccc(C(=O)OCC)n3)cs2)cc1C(F)(F)F [compound 730, ethyl 6-(2-(3-(trifluoromethyl)-4-(octyloxy)phenylamino)thiazol-4-yl)pyridine-2-carboxylate] | < 1000
N#Cc1ccc(Nc2nc(-c3cccnc3)cs2)cc1C(F)(F)F [compound 882, 4-(4-(pyridin-3-yl)thiazol-2-ylamino)-2-(trifluoromethyl)benzonitrile] | > 10000
